Test results: ChEMBL document CHEMBL5053512, “Discovery and Preclinical Pharmacology of an Oral Bromodomain and Extra-Terminal (BET) Inhibitor Using Scaffold-Hopping and Structure-Guided Drug Design” (J Med Chem, 2021)

What was measured:
[1] = target: Cytochrome P450 3A4 (Homo sapiens, UniProt P08684); assay: Inhibition of CYP3A4 (unknown origin); format: ADME
[2] = Elimination half life in rat at 1 mg/kg, iv; format: ADME, organism-based; settings: in vivo, read-out: beta t1/2 (converted)
[3] = Antitumour activity against patient-derived human BR0869F cells xenografted in mouse model at 1.6 mg/kg, po bid, 5 days on and 2 days off for 2 weeks; format: functional; settings: 120 h, time 5 day, read-out: TGI
[4] = Antitumour activity against patient-derived human PAT157 cells xenografted in mouse model at 1.6 mg/kg, po bid, 5 days on and 2 days off for 2 weeks; format: functional; settings: PAT157, 120 h, time 5 day, read-out: TGI
[5] = tested on: SW900; assay: Anticancer activity against human SW900 cells; format: functional, cell-based
[6] = Oral bioavailability in rat at 5 mg/kg; format: ADME, organism-based; settings: in vivo
[7] = Cmax in mouse at 30 mg/kg, po; format: ADME, organism-based; set-up: dose 30 mg/kg, route po; settings: in vivo
[8] = Volume of distribution at steady state in mouse at 1.75 mg/kg, iv; format: ADME, organism-based; settings: in vivo, read-out: Vdss
[9] = Antitumour activity against human LG0787F cells xenografted in po dosed NSG mouse assessed as minimum effective concentration; format: functional; settings: dose 0.25 mg/kg/day
[10] = target: Bromodomain-containing protein 4 (Homo sapiens, UniProt O60885); assay: Inhibition of human BRD4 (1 to 477 residues) measured after 60 mins by TR-FRET assay
[11] = Drug concentration at steady state in human LG0787F cells xenografted in NSG mouse at 1 mg/kg/day infused continuously over 6 days using Alzet pump; format: ADME, organism-based; settings: in vivo, 144 h, time 6 day
[12] = tested on: OCI-AML-3; assay: Anticancer activity against human OCI-AML3 cells; format: functional, cell-based
[13] = Antitumour activity against patient-derived human BR1977F cells xenografted in mouse model at 1.6 mg/kg, po bid, 5 days on and 2 days off for 2 weeks; format: functional; settings: 120 h, time 5 day, read-out: TGI
[14] = tested on: NCI-H211; assay: Anticancer activity against human NCI-H211 cells; format: functional, cell-based
[15] = Antitumour activity against patient-derived human PAT149 cells xenografted in mouse model at 1.6 mg/kg, po bid, 5 days on and 2 days off for 2 weeks; format: functional; settings: PAT149, 120 h, time 5 day, read-out: TGI
[16] = target: Cytochrome P450 1A2 (Homo sapiens, UniProt P05177); assay: Inhibition of CYP1A2 (unknown origin); format: ADME
Chain of Cytochrome P450 1A2 (P05177 whole entry): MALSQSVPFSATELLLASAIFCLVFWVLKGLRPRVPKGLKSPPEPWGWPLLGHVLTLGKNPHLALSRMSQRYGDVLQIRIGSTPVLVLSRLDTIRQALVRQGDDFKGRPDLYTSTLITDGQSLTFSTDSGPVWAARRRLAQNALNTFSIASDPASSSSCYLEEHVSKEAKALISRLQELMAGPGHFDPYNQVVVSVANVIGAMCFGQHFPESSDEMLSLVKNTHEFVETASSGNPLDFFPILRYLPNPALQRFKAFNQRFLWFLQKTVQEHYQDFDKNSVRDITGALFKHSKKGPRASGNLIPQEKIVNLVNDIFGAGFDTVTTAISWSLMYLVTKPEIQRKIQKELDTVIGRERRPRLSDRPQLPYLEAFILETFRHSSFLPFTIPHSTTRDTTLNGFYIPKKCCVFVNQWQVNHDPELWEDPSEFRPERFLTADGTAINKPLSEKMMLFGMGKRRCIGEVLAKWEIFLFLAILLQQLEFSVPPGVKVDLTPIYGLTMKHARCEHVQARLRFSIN

[17] = tested on: A549; assay: Anticancer activity against human A549 cells; format: functional, cell-based
[18] = Antitumour activity against patient-derived human PAT150 cells xenografted in mouse model at 1.6 mg/kg, po bid, 5 days on and 2 days off for 2 weeks; format: functional; settings: PAT150, 120 h, time 5 day, read-out: TGI
[19] = target: Cytochrome P450 2C9 (Homo sapiens, UniProt P11712); assay: Inhibition of CYP2C9 (unknown origin); format: ADME
Chain of Cytochrome P450 2C9 (P11712 whole entry): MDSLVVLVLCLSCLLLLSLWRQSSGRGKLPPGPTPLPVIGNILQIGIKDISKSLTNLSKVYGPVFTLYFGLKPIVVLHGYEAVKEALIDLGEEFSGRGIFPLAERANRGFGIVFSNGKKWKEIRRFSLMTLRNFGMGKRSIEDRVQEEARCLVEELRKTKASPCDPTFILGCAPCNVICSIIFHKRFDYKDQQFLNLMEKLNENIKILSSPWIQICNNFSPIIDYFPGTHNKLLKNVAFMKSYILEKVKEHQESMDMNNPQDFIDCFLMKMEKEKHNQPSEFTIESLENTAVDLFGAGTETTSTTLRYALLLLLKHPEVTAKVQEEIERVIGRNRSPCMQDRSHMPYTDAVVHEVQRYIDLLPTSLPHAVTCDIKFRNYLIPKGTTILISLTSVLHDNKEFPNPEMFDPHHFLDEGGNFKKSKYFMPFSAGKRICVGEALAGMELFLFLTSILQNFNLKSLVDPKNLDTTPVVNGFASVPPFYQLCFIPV

[20] = tested on: NCI-H1703; assay: Anticancer activity against human NCI-H1703 cells; format: functional, cell-based
[21] = tested on: NCI-H2170; assay: Anticancer activity against human NCI-H2170 cells; format: functional, cell-based
[22] = tested on: HCC95; assay: Anticancer activity against human HCC95 cells; format: functional, cell-based
[23] = tested on: NCI-H2228; assay: Anticancer activity against human […] cells; format: functional, cell-based
[24] = Total plasma clearance in rat at 1 mg/kg, iv; format: ADME, organism-based
[25] = tested on: NCI-H2030; assay: Anticancer activity against human NCI-H2030 cells; format: functional, cell-based
[26] = Antitumour activity against human LG0787F cells xenografted in NSG mouse assessed as tumour growth inhibition at 1 mg/kg/day, po bid; format: functional; settings: read-out: TGI
[27] = Total plasma clearance in mouse at 1.75 mg/kg, iv; format: ADME, organism-based
[28] = tested on: NCI-H1793; assay: Anticancer activity against human NCI-H1793 cells; format: functional, cell-based
[29] = Elimination half life in dog at 0.1 mg/kg, iv; format: ADME, organism-based, Canis lupus familiaris; settings: in vivo, read-out: beta t1/2 (converted)
[30] = Antitumour activity against patient-derived human BR1367F cells xenografted in mouse model at 1.6 mg/kg, po bid, 5 days on and 2 days off for 2 weeks; format: functional; settings: 120 h, time 5 day, read-out: TGI
[31] = tested on: NCI-H1355; assay: Anticancer activity against human NCI-H1355 cells; format: functional, cell-based
[32] = AUC in human LG0787F cells xenografted in NSG mouse at 0.25 mg/kg/day, po bid; format: ADME, organism-based; set-up: dose 0.25 mg/kg/day, route po; settings: in vivo
[33] = Permeability coefficient of the compound by PAMPA; format: ADME; settings: read-out: permeability
[34] = Oral bioavailability in dog at 5 mg/kg; format: ADME, organism-based, Canis lupus familiaris; settings: in vivo
[35] = tested on: NCI-H2009; assay: Anticancer activity against human NCI-H2009 cells; format: functional, cell-based
[36] = AUC in human LG0787F cells xenografted in NSG mouse at 1 mg/kg/day, po bid; format: ADME, organism-based; set-up: dose 1 mg/kg/day, route po; settings: in vivo
[37] = target: CREB-binding protein (Homo sapiens) (UniProt Q92793)
Description: Binding affinity to CREBBP (unknown origin) assessed as change in melting temperature of protein

[38] = Antitumour activity against patient-derived human PAT81 cells xenografted in mouse model at 1.6 mg/kg, po bid, 5 days on and 2 days off for 2 weeks; format: functional; settings: PAT81, 120 h, time 5 day, read-out: TGI
[39] = tested on: NCI-H520; assay: Anticancer activity against human NCI-H520 cells; format: functional, cell-based
[40] = target: Cytochrome P450 2C19 (Homo sapiens, UniProt P33261); assay: Inhibition of CYP2C19 (unknown origin); format: ADME
Chain of Cytochrome P450 2C19 (P33261 whole entry): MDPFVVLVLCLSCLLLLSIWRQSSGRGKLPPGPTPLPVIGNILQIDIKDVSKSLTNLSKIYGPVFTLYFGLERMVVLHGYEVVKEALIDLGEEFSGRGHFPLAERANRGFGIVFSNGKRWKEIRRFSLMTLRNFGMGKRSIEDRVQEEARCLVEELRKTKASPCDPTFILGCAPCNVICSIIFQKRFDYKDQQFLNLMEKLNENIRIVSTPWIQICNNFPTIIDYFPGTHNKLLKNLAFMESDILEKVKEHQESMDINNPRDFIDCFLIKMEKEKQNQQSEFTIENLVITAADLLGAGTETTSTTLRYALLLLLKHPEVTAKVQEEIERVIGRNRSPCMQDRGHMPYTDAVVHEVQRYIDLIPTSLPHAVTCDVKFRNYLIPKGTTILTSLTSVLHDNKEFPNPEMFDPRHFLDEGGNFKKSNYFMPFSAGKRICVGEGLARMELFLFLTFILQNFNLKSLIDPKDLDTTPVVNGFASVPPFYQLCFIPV

[41] = target: Histone acetyltransferase p300 (Homo sapiens) (UniProt Q09472)
Chain of Histone acetyltransferase p300 (Homo sapiens) (Q09472 whole entry): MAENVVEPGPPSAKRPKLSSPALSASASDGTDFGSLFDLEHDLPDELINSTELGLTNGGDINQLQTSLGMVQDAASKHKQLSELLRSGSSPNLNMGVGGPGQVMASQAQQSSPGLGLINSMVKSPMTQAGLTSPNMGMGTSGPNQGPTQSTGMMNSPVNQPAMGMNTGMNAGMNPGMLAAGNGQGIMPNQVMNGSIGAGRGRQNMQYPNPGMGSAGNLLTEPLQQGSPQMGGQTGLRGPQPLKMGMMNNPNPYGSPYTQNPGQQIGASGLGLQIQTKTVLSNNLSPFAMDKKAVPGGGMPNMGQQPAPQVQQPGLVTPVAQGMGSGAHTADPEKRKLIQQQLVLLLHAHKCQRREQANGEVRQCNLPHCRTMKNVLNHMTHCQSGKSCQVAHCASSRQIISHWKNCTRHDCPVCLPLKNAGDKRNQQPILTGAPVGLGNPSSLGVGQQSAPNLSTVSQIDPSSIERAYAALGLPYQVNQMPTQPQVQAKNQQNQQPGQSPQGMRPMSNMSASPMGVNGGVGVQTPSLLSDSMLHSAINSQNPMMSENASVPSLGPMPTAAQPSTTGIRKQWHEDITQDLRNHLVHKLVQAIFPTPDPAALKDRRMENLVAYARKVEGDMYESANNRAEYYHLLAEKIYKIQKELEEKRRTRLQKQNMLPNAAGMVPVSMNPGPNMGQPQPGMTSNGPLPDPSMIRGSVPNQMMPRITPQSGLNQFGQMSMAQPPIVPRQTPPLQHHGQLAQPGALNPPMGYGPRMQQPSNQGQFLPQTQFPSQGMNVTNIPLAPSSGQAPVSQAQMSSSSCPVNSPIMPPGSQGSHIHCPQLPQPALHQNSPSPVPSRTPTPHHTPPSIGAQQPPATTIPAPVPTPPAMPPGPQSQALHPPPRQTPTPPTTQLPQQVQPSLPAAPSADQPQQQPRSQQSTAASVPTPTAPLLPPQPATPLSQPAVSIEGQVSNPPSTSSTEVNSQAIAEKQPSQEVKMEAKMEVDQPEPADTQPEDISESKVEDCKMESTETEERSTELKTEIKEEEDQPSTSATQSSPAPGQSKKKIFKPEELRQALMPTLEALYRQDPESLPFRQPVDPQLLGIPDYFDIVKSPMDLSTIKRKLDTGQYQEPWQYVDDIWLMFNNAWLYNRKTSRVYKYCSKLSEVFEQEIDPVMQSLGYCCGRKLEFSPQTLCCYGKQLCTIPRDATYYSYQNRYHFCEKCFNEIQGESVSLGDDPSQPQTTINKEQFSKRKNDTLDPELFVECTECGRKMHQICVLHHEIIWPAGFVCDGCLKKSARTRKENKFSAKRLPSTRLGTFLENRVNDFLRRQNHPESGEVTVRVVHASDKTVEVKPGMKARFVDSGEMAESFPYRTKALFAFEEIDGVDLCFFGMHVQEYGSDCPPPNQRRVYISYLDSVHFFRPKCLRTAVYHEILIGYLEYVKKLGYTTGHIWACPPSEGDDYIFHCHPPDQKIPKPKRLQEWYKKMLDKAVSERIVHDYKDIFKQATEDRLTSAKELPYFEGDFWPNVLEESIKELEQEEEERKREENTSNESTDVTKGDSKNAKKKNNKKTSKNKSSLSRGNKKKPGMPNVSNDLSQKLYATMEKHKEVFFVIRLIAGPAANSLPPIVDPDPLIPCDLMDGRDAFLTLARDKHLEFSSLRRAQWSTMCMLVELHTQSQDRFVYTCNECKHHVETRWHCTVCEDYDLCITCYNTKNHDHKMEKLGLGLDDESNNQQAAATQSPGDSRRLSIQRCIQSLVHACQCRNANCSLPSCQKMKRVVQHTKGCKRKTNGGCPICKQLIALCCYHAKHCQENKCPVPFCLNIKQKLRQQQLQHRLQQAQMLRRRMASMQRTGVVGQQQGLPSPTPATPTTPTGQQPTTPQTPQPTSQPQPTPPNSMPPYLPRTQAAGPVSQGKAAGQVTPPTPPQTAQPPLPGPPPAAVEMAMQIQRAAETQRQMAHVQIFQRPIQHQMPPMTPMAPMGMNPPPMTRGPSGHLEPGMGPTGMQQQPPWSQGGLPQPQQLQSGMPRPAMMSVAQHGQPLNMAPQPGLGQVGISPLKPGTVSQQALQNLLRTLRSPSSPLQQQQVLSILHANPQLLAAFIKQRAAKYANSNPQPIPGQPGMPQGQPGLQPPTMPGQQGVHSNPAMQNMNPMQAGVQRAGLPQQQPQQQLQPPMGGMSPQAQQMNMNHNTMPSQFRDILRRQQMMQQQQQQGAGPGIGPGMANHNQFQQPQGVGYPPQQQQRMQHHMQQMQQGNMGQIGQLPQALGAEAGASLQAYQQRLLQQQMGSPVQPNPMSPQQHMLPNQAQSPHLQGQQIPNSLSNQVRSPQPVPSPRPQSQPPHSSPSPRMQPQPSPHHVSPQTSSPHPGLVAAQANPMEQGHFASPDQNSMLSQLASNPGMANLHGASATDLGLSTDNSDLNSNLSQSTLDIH
Description: Binding affinity to EP300 (unknown origin) assessed as change in melting temperature of protein

[42] = Total plasma clearance in monkey at 0.1 mg/kg, iv; format: ADME, organism-based, Macaca mulatta; settings: rhesus monkey
[43] = Antitumour activity against patient-derived human BR0851F cells xenografted in mouse model at 1.6 mg/kg, po bid, 5 days on and 2 days off for 2 weeks; format: functional; settings: 120 h, time 5 day, read-out: TGI
[44] = Anticancer activity against human HCC1588 cells; format: functional, cell-based
[45] = target: Bromodomain-containing protein 2 (Homo sapiens, UniProt P25440); assay: Inhibition of human BRD2 measured by TR-FRET assay
Chain of Bromodomain-containing protein 2 (P25440 whole entry): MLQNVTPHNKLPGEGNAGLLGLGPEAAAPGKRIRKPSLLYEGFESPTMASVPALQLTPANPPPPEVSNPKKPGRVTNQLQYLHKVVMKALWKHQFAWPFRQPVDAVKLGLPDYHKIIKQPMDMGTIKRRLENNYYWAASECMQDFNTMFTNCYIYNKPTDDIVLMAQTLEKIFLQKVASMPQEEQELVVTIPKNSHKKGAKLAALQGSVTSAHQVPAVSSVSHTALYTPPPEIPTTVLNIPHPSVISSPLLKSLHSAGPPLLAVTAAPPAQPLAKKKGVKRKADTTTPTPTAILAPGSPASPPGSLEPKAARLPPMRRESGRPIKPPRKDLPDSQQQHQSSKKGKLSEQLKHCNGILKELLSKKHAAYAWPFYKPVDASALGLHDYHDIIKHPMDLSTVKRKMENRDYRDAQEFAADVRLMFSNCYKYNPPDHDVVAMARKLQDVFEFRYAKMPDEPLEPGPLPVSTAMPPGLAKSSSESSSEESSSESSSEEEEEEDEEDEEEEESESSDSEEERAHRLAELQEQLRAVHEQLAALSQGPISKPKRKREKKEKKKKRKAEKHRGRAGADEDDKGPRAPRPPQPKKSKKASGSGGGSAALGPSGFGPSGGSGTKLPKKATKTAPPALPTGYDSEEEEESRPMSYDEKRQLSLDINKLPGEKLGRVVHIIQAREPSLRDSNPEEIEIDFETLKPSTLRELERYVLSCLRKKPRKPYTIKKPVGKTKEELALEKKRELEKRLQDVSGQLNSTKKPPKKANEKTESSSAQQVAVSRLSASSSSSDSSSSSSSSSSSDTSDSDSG

[46] = tested on: HCC44; assay: Anticancer activity against human HCC44 cells; format: functional, cell-based
[47] = Anticancer activity against human HCC15 cells; format: functional, cell-based
[48] = Inhibition of c-MYC expression in human JJN3R cells measured after 4 hrs; format: functional, cell-based; settings: JJN-3R
[49] = Antitumour activity against human JJN3R cells measured after 72 hrs by MTS assay; format: functional, cell-based; settings: JJN-3R
[50] = Antitumour activity against human LG0787F cells xenografted in NSG mouse at 1 mg/kg/day infused continuously over 6 days using Alzet pump; format: functional; settings: 144 h, time 6 day, read-out: TGI
[51] = Antitumour activity against patient-derived human PAT160 cells xenografted in mouse model at 1.6 mg/kg, po bid, 5 days on and 2 days off for 2 weeks; format: functional; settings: PAT160, 120 h, time 5 day, read-out: TGI
[52] = Antitumour activity against patient-derived human PAT129 cells xenografted in mouse model at 1.6 mg/kg, po bid, 5 days on and 2 days off for 2 weeks; format: functional; settings: PAT129, 120 h, time 5 day, read-out: TGI

Q: Which results are given for `Cc1nnn(C)c1-c1cnc2c3ccc(C(C)(C)O)cc3n([C@H](c3ccccc3)C3CCOCC3)c2c1` [EZOBRESIB]?
A: IC50 [1]: > 20 µM; half-life [2]: 4.2 h; inhibition in vivo at 1.6 mg/kg [3]: 56%; inhibition in vivo at 1.6 mg/kg [4]: 23%; IC50 [5]: > 0.5 µM; bioavailability [6]: 47%; Cmax [7]: 11.9 µM; Vd [8]: 1.9 L/kg; MEC [9]: 0.03 µM; IC50 [10]: 0.0011 µM; Css [11]: 0.017 µM; IC50 [12]: 0.0007 µM; inhibition in vivo at 1.6 mg/kg [13]: 88%; IC50 [14]: 0.0003 µM; inhibition in vivo at 1.6 mg/kg [15]: 101%; IC50 [16]: > 20 µM; IC50 [17]: > 0.5 µM; inhibition in vivo at 1.6 mg/kg [18]: 62%; IC50 [19]: 11.8 µM; IC50 [20]: > 0.5 µM; IC50 [21]: 0.091 µM; IC50 [22]: 0.0081 µM; IC50 [23]: 0.166 µM; clearance [24]: 2.46 L/h/kg; IC50 [25]: > 0.5 µM; inhibition in vivo at 1 mg/kg/day [26]: 70%; clearance [27]: 0.72 L/h/kg; IC50 [28]: > 0.5 µM; half-life [29]: 5.6 h; inhibition in vivo at 1.6 mg/kg [30]: 68%; IC50 [31]: > 0.5 µM; AUC [32]: 300 nM·h; Papp [33]: 661 nm/s; bioavailability [34]: 59%; IC50 [35]: > 0.5 µM; AUC [36]: 470 nM·h; ΔTm [37]: 5.6 °C; inhibition in vivo at 1.6 mg/kg [38]: 112%; IC50 [39]: > 0.5 µM; IC50 [40]: 5.6 µM; ΔTm [41]: 9.5 °C; clearance [42]: 1.92 L/h/kg; inhibition in vivo at 1.6 mg/kg [43]: 49%; IC50 [44]: > 0.5 µM; IC50 [45]: 0.0014 µM; IC50 [46]: 0.0027 µM; IC50 [47]: 0.365 µM; IC50 [48]: 0.0007 µM; IC50 [49]: 0.0036 µM; inhibition in vivo at 1 mg/kg/day [50]: 78%; inhibition in vivo at 1.6 mg/kg [51]: 9%; inhibition in vivo at 1.6 mg/kg [52]: 65%
